Patent US11826435B2, “Conduritol aziridine derivatives and uses thereof” (University of Saskatchewan, priority 2017, dated 2023)

What was measured:
[1] = molecular target: Cerezyme (Recombinant GCase) (Homo sapiens (Human), UniProt P04062, R534H); assay: Inactivation assay: residual Cerezyme activity with 2,4-DNP-β-Glc substrate; type: biochemical; conditions: 37° C., pH 5.5
Procedure: Inactivation solutions contained a final concentration of 16.55 nM of Cerezyme® (Recombinant GCase) in 200 μL of Reaction Buffer (50 mM acetate, 0.2% v/v Triton X-100, 0.3% w/v sodium taurocholate, pH 5.5). […] These enzyme Reaction Buffers were brought to 37° C. and spiked with a corresponding inhibitor to make the final inhibitor concentration either 20 nM, 40 nM, 60 nM, 80 nM, 120 nM, 160 nM and 200 nM. Once the inhibitor was added this was considered time=0 minutes. Meanwhile a 96 well plate inside a Biotek Synergy 4 hybrid multi-mode reader at 37° C. was being incubated. In the wells of the plate were waiting a high concentration (3.2 mM) of 2,4-DNP-β-Glc substrate in 180 μL of Reaction Buffer. […] Once all the aliquots were added the solution in the wells was measured for absorbance at 400 nm for 8 minutes. […] Inactivation rates for varying inhibitor concentrations were calculated using GraphPad Prism software and Equation 2 (below). […]
Small aliquots of these reaction mixtures were withdrawn and diluted 20-fold in 96 well plates containing a final concentration of 4 mM of the substrate 2,4-DNP-β-D-Glc. […] Residual enzymatic activity at different time points and concentrations was monitored by quantifying the release of 2,4-DNP after 2,4-DNP-3-D-Glc cleavage by Cerezyme®. […]

[2] = molecular target: Cerezyme, a recombinant form of GCase (Homo sapiens (Human), UniProt P04062, R534H); conditions: cited from earlier work
[3] = molecular target: GCase in the presence of Saposin C (Homo sapiens (Human), UniProt P04062); assay: GCase inactivation rate in the presence of Saposin C; type: biochemical; conditions: in words
GCase over GBA2 and GBA3 = GCase over GBA2 and GBA3 (Homo sapiens (Human), UniProt P04062); conditions: in words; cited from earlier work
GCase = GCase (Homo sapiens (Human), UniProt P04062); conditions: cited from earlier work; for ki/Ki previously reported: previously reported (ref 44)
[4] = in words; cited from earlier work

Sequence of GCase (P04062 40-536): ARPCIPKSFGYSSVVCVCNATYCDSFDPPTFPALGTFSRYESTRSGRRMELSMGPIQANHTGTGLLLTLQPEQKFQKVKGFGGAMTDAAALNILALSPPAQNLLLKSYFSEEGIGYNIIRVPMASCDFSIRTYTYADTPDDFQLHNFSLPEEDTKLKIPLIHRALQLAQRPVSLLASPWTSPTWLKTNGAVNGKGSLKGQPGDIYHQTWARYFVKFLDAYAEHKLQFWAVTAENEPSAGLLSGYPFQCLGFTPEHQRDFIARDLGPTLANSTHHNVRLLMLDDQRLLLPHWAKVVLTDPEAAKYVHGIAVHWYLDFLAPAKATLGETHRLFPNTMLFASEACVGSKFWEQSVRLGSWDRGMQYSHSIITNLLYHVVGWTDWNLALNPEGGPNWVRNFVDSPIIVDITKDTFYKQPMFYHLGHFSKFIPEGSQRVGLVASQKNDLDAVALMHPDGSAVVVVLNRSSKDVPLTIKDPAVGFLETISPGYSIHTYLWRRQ
Sequence of Cerezyme (Recombinant GCase) (P04062 40-536 R534H limits assumed): as the sequence (P04062 40-536) above, with R495H counted along it
Sequence of GCase in the presence of Saposin C (P04062 40-536): as the sequence (P04062 40-536) above
Sequence of GCase over GBA2 and GBA3 (P04062 40-536): as above
Sequence of Cerezyme, a recombinant form of GCase (P04062 40-536 R534H limits assumed): as the sequence (P04062 40-536) above, with R495H counted along it

For O[C@H]1[C@H](O)[C@@H](O)[C@H]2[C@@H]([C@@H]1O)N2CCCCC#Cc1ccc(F)cc1 (mixture of isomers) [Compound 34, (±)-(1R,2S,3R,4R,5S,6S)-7-(6-(4-fluorophenyl)hex-5-yn-1-yl)-7-azabicyclo[4.1.0]heptane-2,3,4,5-tetraol], the ki/Ki [1] was 85000 ± 1670 M⁻¹ s⁻¹.
In the case of O=[N+]([O-])c1ccc(OC2O[C@H](CO)[C@@H](O)[C@H](O)[C@H]2F)c([N+](=O)[O-])c1 (stereo partly drawn) [Compound 1.1, β-2,4-dinitrophenyl-fluorodeoxyglucose], the t½ of glucosyl-enzyme [2] is listed as > 21.67 h.
For “N-octyl conduritol aziridine [Compound 1.7]”, the ki/Ki [1] is given as 78300 ± 4170 M⁻¹ s⁻¹, the “inactivation rates towards GCase with Saposin C” value [3] is given as “enhanced” and the “selectivity for GCase over GBA2 and GBA3” value (GCase over GBA2 and GBA3) is given as “selective inhibition of GCase over GBA2 and GBA3”. For the same compound, the ki/Ki (GCase; inhibition of GCase, reported data) was 25.0 μM^−1/min^−1, the ki/Ki previously reported (GCase) was 61170 ± 1170 M⁻¹ s⁻¹ and the ki (GCase; rate constant of inactivation of GCase, reported data) was 0.120 min⁻¹. The cell permeability [4] was “cell permeable”.
In the case of butyl conduritol aziridine, the ki/Ki previously reported (GCase) is given as 63.3 ± 1.7 M⁻¹ s⁻¹.
In the case of hexyl conduritol aziridine, the ki/Ki previously reported (GCase) is given as 10700 ± 500 M⁻¹ s⁻¹.
